How the values were obtained:
[1] = refractive index (Na D-line) (dimensionless); xn = mol fraction of the nth substance listed; conditions: 293.15 K; 100 kPa; Liquid; Standard Abbe refractometry; x1 = 0.52
[2] = xn = mol fraction of the nth substance listed; conditions: 100 kPa, Liquid, Vibrating tube method, x1 = 0.52

C[C@@H]1CC[C@H](C)O1 [cis-2,5-dimethyltetrahydrofuran] + C[C@@H]1CC[C@@H](C)O1
Conditions	refractive index
[1]	1.4043

[2]
Conditions	mass density [kg/m3]
273.15 K	848.22
283.15 K	838.53
293.15 K	828.71
298.15 K	823.89
303.15 K	818.91

From the NIST ThermoML archive (doi:10.1016/j.jct.2018.12.037)
